# According to ChEMBL document CHEMBL5365530, “Identification of a Novel, Potent, and Orally Bioavailable Guanidine-Based SHP2 Allosteric Inhibitor from Virtual Screening and Rational Structural Optimization for the Treatment of KRAS Mutant Cancers” (J Med Chem, 2023):
# Tests used:
# MIA PaCa-2 [1] = assay: Antiproliferative activity against human MIA PaCa-2 cells harboring KRASG12C mutant assessed as inhibition of cell growth incubated for 72 hrs by CellTiter-LumiII Luminescent assay; format: functional, cell-based; details: MIA PaCa-2, 72 h
# KYSE-520 cell line = assay: Antiproliferative activity against human KYSE-520 cells assessed as inhibition of cell growth incubated for 72 hrs by CellTiter-LumiII Luminescent assay; format: functional, cell-based; details: KYSE-520, 72 h
# RAW264.7 = assay: Cytotoxicity against mouse RAW264.7 cells assessed as cell viability at 10 to 30 uM incubated for 72 hrs by CellTiter-LumiII Luminescent assay; format: toxicity, cell-based; details: raw264.7, 72 h, dose 10-30 µM
# [2] = Hepatotoxicity in ICR mouse assessed as increase in plasma AST level at 100 mg/kg, po administered once every 2 days and measured on day 14; format: toxicity, organism-based; details: in vivo, 336 h, time 14 day
# [3] = Hepatotoxicity in ICR mouse assessed as increase in plasma ALT level at 100 mg/kg, po administered once every 2 days and measured on day 14; format: toxicity, organism-based; details: in vivo, 336 h, time 14 day
# [4] = Hepatotoxicity in ICR mouse assessed as increase in plasma ALP level at 100 mg/kg, po administered once every 2 days and measured on day 14; format: toxicity, organism-based; details: in vivo, 336 h, time 14 day
# [5] = molecular target: T1, Tyrosine-protein phosphatase non-receptor type 11 (Homo sapiens, UniProt Q06124); assay: Allosteric Inhibition of H2N-LN(pY)IDLDLV(dPEG8)LST(pY)ASINFQKASINFQK-amide-activated SHP2 (unknown origin) using DiFMUP as substrate pretreated with enzyme for 1 hr followed by substrate addition and measured after 20 mins by fluorescence based analysis
# T1 sequence (Q06124 whole entry): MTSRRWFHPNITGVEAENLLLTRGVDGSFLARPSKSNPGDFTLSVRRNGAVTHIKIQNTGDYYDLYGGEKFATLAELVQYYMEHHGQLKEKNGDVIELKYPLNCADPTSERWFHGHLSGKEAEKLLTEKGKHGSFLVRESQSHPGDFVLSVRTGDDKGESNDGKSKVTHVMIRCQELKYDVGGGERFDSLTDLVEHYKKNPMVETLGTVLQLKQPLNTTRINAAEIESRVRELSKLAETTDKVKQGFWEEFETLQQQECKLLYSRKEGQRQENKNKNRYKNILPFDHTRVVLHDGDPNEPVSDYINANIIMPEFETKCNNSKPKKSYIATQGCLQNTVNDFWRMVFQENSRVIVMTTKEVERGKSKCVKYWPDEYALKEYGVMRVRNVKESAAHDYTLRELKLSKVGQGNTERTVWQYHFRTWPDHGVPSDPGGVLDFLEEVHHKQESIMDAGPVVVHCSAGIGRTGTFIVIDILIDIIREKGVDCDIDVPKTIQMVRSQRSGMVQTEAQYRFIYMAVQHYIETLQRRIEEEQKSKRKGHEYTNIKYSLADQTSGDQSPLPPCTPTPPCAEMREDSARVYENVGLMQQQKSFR
# [6] = molecular target: T1, Tyrosine-protein phosphatase non-receptor type 11; assay: Inhibition of SHP2 PTP domain (unknown origin) using DiFMUP as substrate pretreated with enzyme for 20 mins followed by substrate addition and measured for 2 hrs by fluorescence based analysis
# [7] = molecular target: Tyrosine-protein phosphatase non-receptor type 6 (Homo sapiens, UniProt P29350); assay: Inhibition of SHP1 (unknown origin) using DiFMUP as substrate pretreated with enzyme for 20 mins followed by substrate addition and measured for 2 hrs by fluorescence based analysis
# Sequence of Tyrosine-protein phosphatase non-receptor type 6 (P29350 whole entry): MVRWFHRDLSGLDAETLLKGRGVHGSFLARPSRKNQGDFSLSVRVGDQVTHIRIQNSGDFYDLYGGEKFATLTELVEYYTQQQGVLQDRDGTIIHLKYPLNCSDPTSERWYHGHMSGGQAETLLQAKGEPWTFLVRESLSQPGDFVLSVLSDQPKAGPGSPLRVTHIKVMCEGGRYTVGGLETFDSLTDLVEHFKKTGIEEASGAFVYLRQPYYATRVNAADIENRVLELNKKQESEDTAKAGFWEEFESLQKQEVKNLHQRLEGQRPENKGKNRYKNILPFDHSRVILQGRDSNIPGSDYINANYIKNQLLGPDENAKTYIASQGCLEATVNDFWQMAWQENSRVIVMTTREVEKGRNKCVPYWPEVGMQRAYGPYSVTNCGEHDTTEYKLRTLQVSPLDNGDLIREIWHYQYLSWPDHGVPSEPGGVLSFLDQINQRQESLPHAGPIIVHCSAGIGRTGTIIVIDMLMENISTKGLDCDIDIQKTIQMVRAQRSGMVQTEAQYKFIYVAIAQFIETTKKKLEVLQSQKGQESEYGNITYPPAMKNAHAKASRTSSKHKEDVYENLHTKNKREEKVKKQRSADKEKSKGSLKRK
# MIA PaCa-2 [8] = assay: Induction of apoptosis in human MIA PaCa-2 cells assessed as proportion of viable cells at 2.5 uM incubated for 72 hrs by AnnexinV-FITC/PI staining based flow cytometry (reference value: 98.19%); format: functional
# MIA PaCa-2 [9] = assay: Induction of apoptosis in human MIA PaCa-2 cells assessed as proportion of early apoptotic cells at 2.5 uM incubated for 72 hrs by AnnexinV-FITC/PI staining based flow cytometry (reference value: 0.26%); format: functional
# MIA PaCa-2 [10] = assay: Induction of apoptosis in human MIA PaCa-2 cells assessed as proportion of late apoptotic cells at 2.5 uM incubated for 72 hrs by AnnexinV-FITC/PI staining based flow cytometry (reference value: 1.36%); format: functional
# MIA PaCa-2 [11] = assay: Induction of apoptosis in human MIA PaCa-2 cells assessed as proportion of necrotic cells at 2.5 uM incubated for 72 hrs by AnnexinV-FITC/PI staining based flow cytometry (reference value: 0.19%); format: functional
# MIA PaCa-2 [12] = assay: Induction of apoptosis in human MIA PaCa-2 cells assessed as proportion of viable cells at 5 uM incubated for 72 hrs by AnnexinV-FITC/PI staining based flow cytometry (reference value: 98.19%); format: functional
# MIA PaCa-2 [13] = assay: Induction of apoptosis in human MIA PaCa-2 cells assessed as proportion of early apoptotic cells at 5 uM incubated for 72 hrs by AnnexinV-FITC/PI staining based flow cytometry (reference value: 0.26%); format: functional
# MIA PaCa-2 [14] = assay: Induction of apoptosis in human MIA PaCa-2 cells assessed as proportion of late apoptotic cells at 5 uM incubated for 72 hrs by AnnexinV-FITC/PI staining based flow cytometry (reference value: 1.36%); format: functional
# MIA PaCa-2 [15] = assay: Induction of apoptosis in human MIA PaCa-2 cells assessed as proportion of necrotic cells at 5 uM incubated for 72 hrs by AnnexinV-FITC/PI staining based flow cytometry (reference value: 0.19%); format: functional
# MIA PaCa-2 [16] = assay: Induction of apoptosis in human MIA PaCa-2 cells assessed as proportion of viable cells at 10 uM incubated for 72 hrs by AnnexinV-FITC/PI staining based flow cytometry (reference value: 98.19%); format: functional
# MIA PaCa-2 [17] = assay: Induction of apoptosis in human MIA PaCa-2 cells assessed as proportion of early apoptotic cells at 10 uM incubated for 72 hrs by AnnexinV-FITC/PI staining based flow cytometry (reference value: 0.26%); format: functional
# MIA PaCa-2 [18] = assay: Induction of apoptosis in human MIA PaCa-2 cells assessed as proportion of late apoptotic cells at 10 uM incubated for 72 hrs by AnnexinV-FITC/PI staining based flow cytometry (reference value: 1.36%); format: functional
# MIA PaCa-2 [19] = assay: Induction of apoptosis in human MIA PaCa-2 cells assessed as proportion of necrotic cells at 10 uM incubated for 72 hrs by AnnexinV-FITC/PI staining based flow cytometry (reference value: 0.19%); format: functional
# [20] = Half life in ICR mouse at 1 mg/kg, iv measured for 24 hrs by LC-MS/MS analysis; format: ADME, organism-based; details: in vivo
# [21] = Clearance in ICR mouse at 1 mg/kg, iv measured for 24 hrs by LC-MS/MS analysis; format: ADME, organism-based; details: in vivo
# [22] = Volume of distribution in ICR mouse at 1 mg/kg, iv measured for 24 hrs by LC-MS/MS analysis; format: ADME, organism-based; details: in vivo
# [23] = AUC in ICR mouse at 1 mg/kg, iv measured for 24 hrs by LC-MS/MS analysis; format: ADME, organism-based; design: time 24 hrs, dose 1 mg/kg, route iv; details: in vivo
# [24] = Half life in ICR mouse at 10 mg/kg, po measured for 24 hrs by LC-MS/MS analysis; format: ADME, organism-based; details: in vivo
# [25] = Tmax in ICR mouse at 10 mg/kg, po measured for 24 hrs by LC-MS/MS analysis; format: ADME, organism-based; details: in vivo
# [26] = Cmax in ICR mouse at 10 mg/kg, po measured for 24 hrs by LC-MS/MS analysis; format: ADME, organism-based; design: time 24 hrs, dose 10 mg/kg, route po; details: in vivo
# [27] = AUC in ICR mouse at 10 mg/kg, po measured for 24 hrs by LC-MS/MS analysis; format: ADME, organism-based; design: dose 10 mg/kg, time 24 hrs, route po; details: in vivo
# [28] = Oral bioavailability in ICR mouse at 10 mg/kg measured for 24 hrs by LC-MS/MS analysis; format: ADME, organism-based; details: in vivo
# MIA PaCa-2 [29] = assay: Antitumor activity against human MIA PaCa-2 cells xenografted in BALB/c nude mouse assessed as inhibition of tumor growth at 40 mg/kg, po administered daily for 17 days; format: functional; details: time 17 day
# [30] = Toxicity against BALB/c nude mouse xenografted with human MIA PaCa-2 cells assessed as animal's death at 20 to 40 mg/kg, po administered daily for 17 days; format: organism-based; details: in vivo, 408 h, dose 20-40 mg/kg, time 17 day
# [31] = Toxicity against BALB/c nude mouse xenografted with human MIA PaCa-2 cells assessed as effect on body weight at 20 to 40 mg/kg, po administered daily for 17 days; format: organism-based; details: in vivo, 408 h, dose 20-40 mg/kg, time 17 day
structure (smiles),measurement,setting,value
CC1(N)CCN(c2cnc(-c3cccc(Cl)c3Cl)c(N)n2)CC1,IC50,MIA PaCa-2 [1],41900 nM
same,IC50,KYSE-520 cell line,10800 nM
same,Activity,RAW264.7,Non-Toxic
same,Activity,[2],Toxic
same,Activity,[3],Toxic
same,Activity,[4],Toxic
N#Cc1cc(/N=C(\N)N2CCN(c3cnc(-c4cccc(Cl)c4Cl)c(N)n3)CC2)cs1,IC50,[5],72.8 nM
N#Cc1ccc(/N=C(\N)N2CCN(c3cnc(Sc4cccnc4C(F)(F)F)c(N)n3)CC2)cc1,IC50,[5],159 nM
COc1ccc(/N=C(\N)N2CCN(c3cnc(-c4cccc(Cl)c4Cl)c(N)n3)CC2)cc1,IC50,[5],52.7 nM
N/C(=N\c1cnccn1)N1CCN(c2cnc(-c3cccc(Cl)c3Cl)c(N)n2)CC1,IC50,[5],396 nM
CN(CCN(C)c1cnc(-c2cccc(Cl)c2Cl)c(N)n1)C(=N)N,IC50,[5],6250 nM
N/C(=N\c1cccs1)N1CCN(c2cnc(-c3cccc(Cl)c3Cl)c(N)n2)CC1,IC50,[5],252 nM
N=C(N)N1CCN(c2cnc(-c3cccc(Cl)c3Cl)c(N)n2)C(=O)C1,IC50,[5],> 10000 nM
CN/C(=N\c1ccc(C#N)cc1)N1CCN(c2cnc(-c3cccc(Cl)c3Cl)c(N)n2)CC1,IC50,[5],2000 nM
N/C(=N\c1ccccn1)N1CCN(c2cnc(-c3cccc(Cl)c3Cl)c(N)n2)CC1,IC50,[5],184 nM
N/C(=N\c1ncccn1)N1CCN(c2cnc(-c3cccc(Cl)c3Cl)c(N)n2)CC1,IC50,[5],715 nM
N#Cc1ccc(/N=C(\N)N2CCN(c3cnc(-c4cccc(Cl)c4Cl)c(N)n3)CC2)cc1,IC50,[5],34.6 nM
N/C(=N\C(=O)c1ccncc1)N1CCN(c2cnc(-c3cccc(Cl)c3Cl)c(N)n2)CC1,IC50,[5],4850 nM
N/C(=N\c1ccccc1)N1CCN(c2cnc(-c3cccc(Cl)c3Cl)c(N)n2)CC1,IC50,[5],137 nM
NC(=O)N1CCN(c2cnc(-c3cccc(Cl)c3Cl)c(N)n2)CC1,IC50,[5],6360 nM
COc1ccccc1/N=C(\N)N1CCN(c2cnc(-c3cccc(Cl)c3Cl)c(N)n2)CC1,IC50,[5],112 nM
N/C(=N\c1ccc(C(F)(F)F)cc1)N1CCN(c2cnc(-c3cccc(Cl)c3Cl)c(N)n2)CC1,IC50,[5],92.2 nM
N=C(N)N1CCN(c2cnc(-c3cccc(Cl)c3Cl)c(N)n2)CC1,IC50,[5],414 nM
COc1cccc(/N=C(\N)N2CCN(c3cnc(-c4cccc(Cl)c4Cl)c(N)n3)CC2)c1,IC50,[5],30.4 nM
N/C(=N\c1cncnc1)N1CCN(c2cnc(-c3cccc(Cl)c3Cl)c(N)n2)CC1,IC50,[5],210 nM
N/C(=N\c1ccc(F)cc1)N1CCN(c2cnc(-c3cccc(Cl)c3Cl)c(N)n2)CC1,IC50,[5],53.3 nM
Nc1nc(N2CCN(S(N)(=O)=O)CC2)cnc1-c1cccc(Cl)c1Cl,IC50,[5],3400 nM
N#Cc1ccc(/N=C(\N)N2CCN(c3cnc(-c4cccc(Cl)c4Cl)cn3)CC2)cc1,IC50,[5],3760 nM
COc1cc(/N=C(\N)N2CCN(c3cnc(-c4cccc(Cl)c4Cl)c(N)n3)CC2)ccc1C#N,IC50,[5],17.7 nM
same,IC50,[6],> 30000 nM
same,IC50,[7],> 30000 nM
same,IC50,MIA PaCa-2 [1],6800 nM
same,IC50,KYSE-520 cell line,1800 nM
same,Activity,MIA PaCa-2 [8],88.63%
same,Activity,MIA PaCa-2 [9],4.98%
same,Activity,MIA PaCa-2 [10],6.18%
same,Activity,MIA PaCa-2 [11],0.21%
same,Activity,MIA PaCa-2 [12],79.83%
same,Activity,MIA PaCa-2 [13],7.47%
same,Activity,MIA PaCa-2 [14],12.55%
same,Activity,MIA PaCa-2 [15],0.15%
same,Activity,MIA PaCa-2 [16],63.59%
same,Activity,MIA PaCa-2 [17],12.54%
same,Activity,MIA PaCa-2 [18],23.65%
same,Activity,MIA PaCa-2 [19],0.22%
same,half-life,[20],1.9 h
same,clearance,[21],52.2 mL/min/kg
same,Vd,[22],8.4 L/kg
same,AUC at 24 h,[23],0.651 µM·h
same,half-life,[24],2 h
same,Tmax,[25],0.8 h
same,Cmax,[26],1090 nM
same,AUC at 24 h,[27],4.32 µM·h
same,bioavailability,[28],66.3%
same,inhibition (INH),MIA PaCa-2 [29],48%
same,Activity,[30],Non-Toxic
same,Activity,[31],Non-Toxic
same,Activity,RAW264.7,Non-Toxic
same,Activity,[2],Non-Toxic
same,Activity,[3],Non-Toxic
same,Activity,[4],Non-Toxic
N/C(=N\c1ccsc1)N1CCN(c2cnc(-c3cccc(Cl)c3Cl)c(N)n2)CC1,IC50,[5],48.1 nM
CNC(=O)c1ccc(/N=C(\N)N2CCN(c3cnc(-c4cccc(Cl)c4Cl)c(N)n3)CC2)cc1,IC50,[5],3210 nM
N#Cc1ccc(/N=C(\N)N2CCN(c3cnc(-c4cccc(Cl)c4Cl)c(N)n3)CC2)cn1,IC50,[5],74.2 nM
N/C(=N\c1cccnc1)N1CCN(c2cnc(-c3cccc(Cl)c3Cl)c(N)n2)CC1,IC50,[5],142 nM
NC(=S)N1CCN(c2cnc(-c3cccc(Cl)c3Cl)c(N)n2)CC1,IC50,[5],1150 nM
N/C(=N\c1ccncc1)N1CCN(c2cnc(-c3cccc(Cl)c3Cl)c(N)n2)CC1,IC50,[5],64.5 nM
